Measured values as given in PubChem BioAssay (NCI).
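Cells were grown in 96-well plates and exposed to each compound for 48 hours at five concentrations; endpoints were interpolated linearly between bracketing concentrations, or set to the highest concentration if not reached. TGI: concentration producing complete growth inhibition.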

What was measured:
Assay in all cases: growth of human tumour cells (NCI), 48 h
[1] = tested on: SNB-75 CNS
[2] = tested on: SF-539 CNS
[3] = tested on: MOLT-4 leukemia
[4] = tested on: HT29 colon
[5] = tested on: PC-3 prostate
[6] = tested on: OVCAR-5 ovarian
[7] = tested on: M14 melanoma
[8] = tested on: NCI-H522 lung
[9] = tested on: SK-MEL-2 melanoma
[10] = tested on: U251 CNS
[11] = tested on: SK-MEL-28 melanoma
[12] = tested on: HOP-62 NSCLC
[13] = tested on: 786-0 renal
[14] = tested on: HCT-15 colon
[15] = tested on: SF-295 CNS
[16] = tested on: MCF7 breast
[17] = tested on: UACC-62 melanoma
[18] = tested on: OVCAR-3 ovarian
[19] = tested on: HCC-2998 colon
[20] = tested on: A549 NSCLC
[21] = tested on: DU-145 prostate
[22] = tested on: UO-31 renal
[23] = tested on: HS 578T breast
[24] = tested on: OVCAR-8 ovarian
[25] = tested on: ACHN renal
[26] = tested on: TK-10 renal
[27] = tested on: MALME-3M melanoma
[28] = tested on: HCT-116 colon
[29] = tested on: UACC-257 melanoma
[30] = tested on: LOX IMVI melanoma
[31] = tested on: EKVX NSCLC
[32] = tested on: K-562 leukemia
[33] = tested on: NCI/ADR-RES ovarian
[34] = tested on: MDA-MB-231 breast
[35] = tested on: NCI-H226 lung
[36] = tested on: SW-620 colon
[37] = tested on: IGROV1 ovarian
[38] = tested on: OVCAR-4 ovarian
[39] = tested on: KM12 colon
[40] = tested on: CAKI-1 renal
[41] = tested on: BT-549 breast
[42] = tested on: A498 renal
[43] = tested on: CCRF-CEM leukemia
[44] = tested on: SK-OV-3 ovarian
[45] = tested on: SR leukemia
[46] = tested on: SF-268 CNS
[47] = tested on: NCI-H460 lung
[48] = tested on: RPMI-8226 leukemia
[49] = tested on: HOP-92 NSCLC
[50] = tested on: MDA-N
[51] = tested on: RXF 393 renal
[52] = tested on: SN12C renal
[53] = tested on: COLO 205 colon
[54] = tested on: NCI-H23 lung
[55] = tested on: HL-60(TB) leukemia
[56] = tested on: T-47D breast
[57] = tested on: SK-MEL-5 melanoma
[58] = tested on: MDA-MB-435
[59] = tested on: SNB-19 CNS

O=c1ccc2[n+]([O-])c3ccc(O)cc3oc-2c1
TGI [1]: > 40.7 µM | TGI [2]: > 100 µM | TGI [3]: 57 µM | TGI [4]: 53.9 µM | TGI [5]: > 100 µM | TGI [6]: 56.6 µM | TGI [7]: 25.4 µM | TGI [8]: 36.6 µM | TGI [9]: 31.5 µM | TGI [10]: > 100 µM | TGI [11]: 22.6 µM | TGI [12]: 67 µM | TGI [13]: 27.2 µM | TGI [14]: > 47.9 µM | TGI [15]: 21.6 µM | TGI [16]: 18.8 µM | TGI [17]: 7.35 µM | TGI [18]: > 80.3 µM | TGI [19]: > 100 µM | TGI [20]: 20.6 µM | TGI [21]: 30.8 µM | TGI [22]: 8 µM | TGI [23]: > 54.1 µM | TGI [24]: > 91.6 µM | TGI [25]: > 37.7 µM | TGI [26]: > 85.2 µM | TGI [27]: 18.3 µM | TGI [28]: > 100 µM | TGI [29]: 26 µM | TGI [30]: 13.8 µM | TGI [31]: > 100 µM | TGI [32]: > 100 µM | TGI [33]: 67.5 µM | TGI [34]: > 92.3 µM | TGI [35]: > 66.8 µM | TGI [36]: 48 µM | TGI [37]: > 100 µM | TGI [38]: 97 µM | TGI [39]: > 100 µM | TGI [40]: > 100 µM | TGI [41]: 25.9 µM | TGI [42]: > 100 µM | TGI [43]: > 73 µM | TGI [44]: > 100 µM | TGI [45]: > 64 µM | TGI [46]: > 100 µM | TGI [47]: 38.7 µM | TGI [48]: > 87 µM | TGI [49]: > 100 µM | TGI [50]: 3.37 µM | TGI [51]: > 100 µM | TGI [52]: 36.7 µM | TGI [53]: 30.1 µM | TGI [54]: 11.4 µM | TGI [55]: > 66.8 µM | TGI [56]: > 100 µM | TGI [57]: 13.8 µM

COc1nc(=O)n(C2CC(F)C(CO)O2)cc1C (stereo not drawn)
TGI [2]: > 100 µM | TGI [3]: > 100 µM | TGI [4]: > 100 µM | TGI [7]: > 100 µM | TGI [8]: > 100 µM | TGI [10]: > 100 µM | TGI [11]: > 100 µM | TGI [12]: > 100 µM | TGI [13]: > 100 µM | TGI [14]: > 100 µM | TGI [15]: > 100 µM | TGI [58]: > 100 µM | TGI [16]: > 100 µM | TGI [17]: > 100 µM | TGI [18]: > 100 µM | TGI [19]: > 100 µM | TGI [20]: > 100 µM | TGI [21]: > 100 µM | TGI [22]: > 100 µM | TGI [23]: > 100 µM | TGI [24]: > 100 µM | TGI [25]: > 100 µM | TGI [26]: > 100 µM | TGI [27]: > 100 µM | TGI [28]: > 100 µM | TGI [29]: > 100 µM | TGI [30]: > 100 µM | TGI [31]: > 100 µM | TGI [32]: > 100 µM | TGI [33]: > 100 µM | TGI [34]: > 100 µM | TGI [35]: > 100 µM | TGI [36]: > 100 µM | TGI [37]: > 100 µM | TGI [38]: > 100 µM | TGI [39]: > 100 µM | TGI [40]: > 100 µM | TGI [41]: > 100 µM | TGI [43]: > 100 µM | TGI [45]: > 100 µM | TGI [46]: > 100 µM | TGI [47]: > 100 µM | TGI [48]: > 100 µM | TGI [50]: > 100 µM | TGI [52]: > 100 µM | TGI [59]: > 100 µM | TGI [53]: > 100 µM | TGI [54]: > 100 µM | TGI [55]: > 100 µM | TGI [56]: > 100 µM | TGI [57]: > 100 µM
